Results taken from patent US12478617B2, “Lipidated peptide inhibitors of interleukin-23 receptor” (JANSSEN BIOTECH, INC., priority 2021, dated 2025).
Starred links: 1 amine or outer side, 2 acyl side, 3 side chain; linkers in the order of their positions; H or OH if unused. Positions of bridges follow the written chain, without caps; N, C: chain ends. Non-standard residues stand in square brackets, D forms with d. Residues, ends and D or L forms follow the SMILES beside them. Groups on a side chain read outwards from the residue. *: point of attachment. X7 = C[N+](C)(CCNC(=O)CC[C@H](NC(=O)CCCCCCCCCCCCCCCCC(=O)O)C(=O)O)CC(=O)*; X4 = O=C(O)CCCCCCCCCCCCCCC(=O)NC[C@H](NC(=O)CCCCCCCCCCCCCCC(=O)O)C(=O)*; Decanoyl(10-(4-HOOC-PhO)) = O=C(O)c1ccc(OCCCCCCCCCC(=O)*)cc1; Trp(7-Me) = Cc1cccc2c(C[C@H](N)C(=O)O)c[nH]c12; C18 diacid = O=C(O)CCCCCCCCCCCCCCCCC(=O)*; γGlu = O=C(O)[C@H](CCC(=O)[*:2])N[*:1]; 2Nal = N[C@@H](Cc1ccc2ccccc2c1)C(=O)O; AEF = NCCOc1ccc(C[C@H](N)C(=O)O)cc1; 3Pal = N[C@@H](Cc1cccnc1)C(=O)O; Pen = CC(C)(S)[C@H](N)C(=O)O; Thp = NC1(C(=O)O)CCOCC1; AEEA = NCCOCCOCC(=O)O; Sar = CNCC(=O)O

Biological target: T1, IL-23R (Homo sapiens, UniProt Q5VWK5)
T1 construct: HEK293 cells containing IL-23R, IL-12RP31 and a firefly luciferase reporter gene driven by a STAT-inducible promoter (Promega); host or cells: HEK293
T1 sequence (Q5VWK5 24-629): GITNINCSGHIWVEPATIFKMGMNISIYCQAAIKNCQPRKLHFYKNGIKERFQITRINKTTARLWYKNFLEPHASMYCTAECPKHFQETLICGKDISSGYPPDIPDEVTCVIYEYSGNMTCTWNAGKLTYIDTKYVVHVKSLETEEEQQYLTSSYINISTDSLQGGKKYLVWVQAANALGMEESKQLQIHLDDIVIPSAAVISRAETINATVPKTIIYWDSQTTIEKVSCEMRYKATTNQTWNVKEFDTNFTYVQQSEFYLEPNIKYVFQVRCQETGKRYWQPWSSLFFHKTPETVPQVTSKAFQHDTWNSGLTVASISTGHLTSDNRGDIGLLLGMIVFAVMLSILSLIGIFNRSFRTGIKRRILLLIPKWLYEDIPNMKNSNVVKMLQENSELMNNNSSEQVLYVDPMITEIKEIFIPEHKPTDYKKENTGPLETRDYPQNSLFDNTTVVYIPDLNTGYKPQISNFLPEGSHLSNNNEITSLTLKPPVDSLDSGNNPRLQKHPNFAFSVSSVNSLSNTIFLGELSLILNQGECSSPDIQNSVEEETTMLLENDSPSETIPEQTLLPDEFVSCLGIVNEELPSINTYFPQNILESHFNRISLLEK
Assay: IL23R Reporter Assay
Type: cell-based
In short: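 Luminescence from BioGlo, read after cells were moved to 20 °C, followed a 5 h incubation at 37 °C, 5% CO2 with DMSO-diluted test compounds.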

IC50 [nM]	Structure (SMILES)
0.048	CC(=O)NCCCC[C@@H]1NC(=O)[C@H](Cc2c[nH]c3c(C)cccc23)NC(=O)[C@H]([C@@H](C)O)NC(=O)[C@H](CC(N)=O)NC(=O)[C@@H](NC(C)=O)C(C)(C)SSC(C)(C)[C@@H](C(=O)N[C@@H](Cc2ccc(OCCN)cc2)C(=O)N[C@@H](Cc2ccc3ccccc3c2)C(=O)NC2(C(=O)N[C@@H](CCCCNC(=O)COCCOCCNC(=O)COCCOCCNC(=O)CC[C@H](NC(=O)CCCCCCCCCOc3ccc(C(=O)O)cc3)C(=O)O)C(=O)N[C@@H](CC(N)=O)C(=O)N[C@@H](Cc3cccnc3)C(=O)N(C)CC(N)=O)CCOCC2)NC1=O [Example 111, MeCO-Pen*-N-T-7MeW-K(Ac)-Pen*-AEF-2Nal-THP-K(PEG2PEG2gEpXOH)-N-3Pya-Sar-CONH2] (Ac-[Pen]NT[Trp(7-Me)]K(Ac)[Pen][AEF][2Nal][Thp]K([AEEA-AEEA-γGlu-Decanoyl(10-(4-HOOC-PhO))])N[3Pal][Sar]-NH2; disulfide 1-6)
0.15	CC(=O)NCCCC[C@@H]1NC(=O)[C@H](Cc2c[nH]c3c(C)cccc23)NC(=O)[C@H]([C@@H](C)O)NC(=O)[C@H](CC(N)=O)NC(=O)[C@@H](NC(C)=O)C(C)(C)SSC(C)(C)[C@@H](C(=O)N[C@@H](Cc2ccc(OCCN)cc2)C(=O)N[C@@H](Cc2ccc3ccccc3c2)C(=O)NC2(C(=O)N[C@@H](CCCCNC(=O)[C@H](CNC(=O)CCCCCCCCCCCCCCC(=O)O)NC(=O)CCCCCCCCCCCCCCC(=O)O)C(=O)N[C@@H](CC(N)=O)C(=O)N[C@@H](Cc3cccnc3)C(=O)N(C)CC(N)=O)CCOCC2)NC1=O [Example 114, MeCO-Pen*-N-T-7MeW-K(Ac)-Pen*-AEF-2Nal-THP-K(DAP-(C16OH)2)-N-3Pya-Sar-CONH2] (Ac-[Pen]NT[Trp(7-Me)]K(Ac)[Pen][AEF][2Nal][Thp]K(X4)N[3Pal][Sar]-NH2; disulfide 1-6)
0.15	CC(=O)NCCCC[C@@H]1NC(=O)[C@H](Cc2c[nH]c3c(C)cccc23)NC(=O)[C@H]([C@@H](C)O)NC(=O)[C@H](CC(N)=O)NC(=O)[C@@H](NC(C)=O)C(C)(C)SSC(C)(C)[C@@H](C(=O)N[C@@H](Cc2ccc(OCCN)cc2)C(=O)N[C@@H](Cc2ccc3ccccc3c2)C(=O)NC2(C(=O)N[C@@H](CCCCNC(=O)COCCOCCNC(=O)COCCOCCNC(=O)CC[C@H](NC(=O)[C@H](CNC(=O)CCCCCCCCCCCCCCC(=O)O)NC(=O)CCCCCCCCCCCCCCC(=O)O)C(=O)O)C(=O)N[C@@H](CC(N)=O)C(=O)N[C@@H](Cc3cccnc3)C(=O)N(C)CC(N)=O)CCOCC2)NC1=O [Example 116, MeCO-Pen*-N-T-7MeW-K(Ac)-Pen*-AEF-2Nal-THP-K(PEG2PEG2gE-DAP(C16OH)2)-N-3Pya-Sar-CONH2]
0.077	CC(=O)NCCCC[C@@H]1NC(=O)[C@H](Cc2c[nH]c3c(C)cccc23)NC(=O)[C@H]([C@@H](C)O)NC(=O)[C@H](CC(N)=O)NC(=O)[C@@H](NC(C)=O)C(C)(C)SSC(C)(C)[C@@H](C(=O)N[C@@H](Cc2ccc(OCCN)cc2)C(=O)N[C@@H](Cc2ccc3ccccc3c2)C(=O)NC2(C(=O)N[C@@H](CCCCNC(=O)COCCOCCNC(=O)COCCOCCNC(=O)C[N+](C)(C)CCNC(=O)CC[C@H](NC(=O)CCCCCCCCCCCCCCCCC(=O)O)C(=O)O)C(=O)N[C@@H](CC(N)=O)C(=O)N[C@@H](Cc3cccnc3)C(=O)N(C)CC(N)=O)CCOCC2)NC1=O [Example 118, MeCO-Pen*-N-T-7MeW-K(Ac)-Pen*-AEF-2Nal-THP-K(PEG2PEG2SP6gEC18OH)-N-3Pya-Sar-CONH2] (Ac-[Pen]NT[Trp(7-Me)]K(Ac)[Pen][AEF][2Nal][Thp]K([AEEA-AEEA-X7])N[3Pal][Sar]-NH2; disulfide 1-6)
0.083	CC(=O)NCCCC[C@@H]1NC(=O)[C@H](Cc2c[nH]c3c(C)cccc23)NC(=O)[C@H]([C@@H](C)O)NC(=O)[C@H](CCCCNC(=O)COCCOCCNC(=O)COCCOCCNC(=O)CC[C@H](NC(=O)CCCCCCCCCCCCCCCCC(=O)O)C(=O)O)NC(=O)[C@@H](NC(C)=O)C(C)(C)SSC(C)(C)[C@@H](C(=O)N[C@@H](Cc2ccc(OCCN)cc2)C(=O)N[C@@H](Cc2ccc3ccccc3c2)C(=O)NC2(C(=O)N[C@@H](CCCCNC(C)=O)C(=O)N[C@@H](CC(N)=O)C(=O)N[C@@H](Cc3cccnc3)C(=O)N(C)CC(N)=O)CCOCC2)NC1=O [Example 122, MeCO-Pen*-K(PEG2PEG2gEC18OH)-T-7MeW-K(Ac)-Pen*-AEF-2Nal-THP-K(Ac)-N-3Pya-Sar-CONH2] (Ac-[Pen]K([AEEA-AEEA-γGlu-C18 diacid])T[Trp(7-Me)]K(Ac)[Pen][AEF][2Nal][Thp]K(Ac)N[3Pal][Sar]-NH2; disulfide 1-6)
